Laboratory results taken from US9750705B2, “Agents useful for treating obesity, diabetes and related disorders” (The Regents of the University of California, priority 2012, dated 2017).
Structures can show the parent of a compound that is named as a salt.

Columns and labels:
[1] = tested on: insulin-dependent activation of Akt and ERK in FL83B cells; assay: High-throughput in-cell western blot (ICWB) screen for insulin sensitizers: insulin-dependent phospho-Akt versus phospho-Erk; assay type: cell-based, mouse; conditions: for rank in the insulin-sensitizer screen: screen of 1689 molecules
Description: Drugs were screened by in-cell western blot (ICWB) for their ability to stimulate phospho-Akt activation in the presence of trace or 10 nM insulin (FIG. 4A). Cells in wells were treated with drugs, and the activity (phosphorylation) of Akt was determined by a phospho-Akt specific antibody. In FIG. 4A, low insulin was given and drugs a, b, c, stimulated Akt activation. In FIG. 4B, 10 nM insulin was given and a, b, and c stimulated signaling over background, and d and e inhibited. […] Drugs were primarily screened for their ability to promote insulin-dependent stimulation of (phospho) Akt, then secondarily screened for lack of activity to stimulate (phospho) Erk, or a high Akt/Erk ratio. Such drugs are expected to cause insulin sensitivity, resistance to obesity, and longevity. Some drugs having these desired characteristics are Shc inhibitors.
FL83B cells were seeded on 384 well plates, 10,000 cells per well in F-12 media supplemented with 10% FBS and 25 mM glucose; 48 hours later the media was replaced with F-12, 25 mM glucose without FBS for sixteen hours; cells were supplemented with assigned drug at desired concentration for 1 hour in duplicate and then, the cells were stimulated with desired concentration of insulin for ten minutes for Akt activation and fifteen minutes for ERK activation measurements. After that time the media was removed and replaced with fixing solution of 5% Formaldehyde in PBS, pH=7.4, 30 minutes later, the fixing solution was replaced with the permeabilization buffer, 0.1% triton X100 in PBS for 40 minutes. […] After the incubation with the secondary antibodies for one hour at room temperature, the wells were washed again two times with the 0.1% tween-20 in PBS and scanned on the Li-Cor Odyssey infrared scanner; images were analyzed with the Li-Cor Odyssey software. […] Phospho-Akt, Phospho-ERK signals than were normalized by tubulin signals in each well and the densitometric results were analyzed to identify drugs which improved metabolic insulin sensitivity without inducing the mitogenic ERK activation. […]

[2] = tested on: phospho-Akt in FL83B cells; assay: Western blot of insulin-dependent phospho-Akt; assay type: cell-based, mouse; conditions: for insulin-dependent phospho-Akt (P-Akt) signaling/activation: drug 1 hour, insulin 10 minutes
Description: As explained above and in Example 4, Western blots of phospho-Akt and phospho-Erk are a more accurate and precise and quantitative measure of Akt phosphorylation than ICWB measurements. Insulin-dependent phospho-Akt is a direct measurement of insulin sensitivity, and we expect that Shc inhibitors will stimulate phospho-Akt more than phospho-Erk. All of the drugs listed in FIG. 5A stimulated insulin-dependent phospho-Akt at some concentration. Method. Mouse liver cells FL83B were plated at density of 400.000 cells per well of 6 well plate and cultivated for 48 hours, media was changed to DMEM, 25 mM glucose serum free and 16 hours later the cells were treated with drug at the indicated concentration for one hour. Control wells were treated with the vehicle (DMSO), in certain control wells the metabolic (Akt) insulin signaling was blocked with wortmannin. The cells were induced with indicated concentration of insulin for 10 minutes, total protein was extracted and the Western Blots were performed with indicated antibody as described above. […]

[3] = tested on: phospho-Erk in FL83B cells; assay: Western blot of phospho-Erk; assay type: cell-based, mouse; conditions: drug 1 hour, then insulin
Description: As explained above and in Example 4, Western blots of phospho-Akt and phospho-Erk are a more accurate and precise and quantitative measure of Akt phosphorylation than ICWB measurements. Insulin-dependent phospho-Akt is a direct measurement of insulin sensitivity, and we expect that Shc inhibitors will stimulate phospho-Akt more than phospho-Erk. All of the drugs listed in FIG. 5A stimulated insulin-dependent phospho-Akt at some concentration. Method. Mouse liver cells FL83B were plated at density of 400.000 cells per well of 6 well plate and cultivated for 48 hours, media was changed to DMEM, 25 mM glucose serum free and 16 hours later the cells were treated with drug at the indicated concentration for one hour. Control wells were treated with the vehicle (DMSO), in certain control wells the metabolic (Akt) insulin signaling was blocked with wortmannin. The cells were induced with indicated concentration of insulin for 10 minutes, total protein was extracted and the Western Blots were performed with indicated antibody as described above. Mouse liver cells FL83B were plated at density of 400.000 cells per well of 6 well plate and cultivated for 48 hours, media was changed to DMEM, 25 mM glucose serum free and 16 hours later the cells were treated with drug at the indicated concentration for one hour. […]

[4] = tested on: phospho-Shc; assay: Western blot of phospho-Shc (Shc activation); assay type: cell-based; conditions: dose response
Description: Assays to identify compounds useful for preventing, reducing, delaying or inhibiting symptoms of impaired insulin sensitivity, glucose intolerance or obesity can be performed in vitro. Candidate agents can be contacted with a population of test cells in the presence of insulin (e.g., 1 nM, 5 nM, 10 nM, 100 nM or more). An agent that prevents, reduces, delays or inhibits one or more symptoms of impaired insulin sensitivity, glucose intolerance or obesity increases the ratio of levels of phospho-Akt-1 over phospho-Erk relative to a control ratio. The increase in ratio of levels of phospho-Akt-1 over phospho-Erk can be determined in comparison to a control population of cells that have not been contacted with insulin or have been contacted with a low concentration of insulin (e.g., less than 0.1 nM) or a population of cells contacted with insulin but not with the compound under test. Ratio of levels of phospho-Akt-1 over phospho-Erk can be determined using a Western blot among other methods. Inhibition of Shc activity can be quantitatively measured by assaying the reduction of stimulatory Shc phosphorylation, using a phospho-Shc specific antibody. Inhibition of Shc expression can be measured using a Western blot. […]

[5] = Basal blood glucose in mice after daily drug administration; assay type: in vivo; conditions: 2.5 mg/kg I.P. for 4 days
Description: Groups of age/sex matched mice of Control and ShcKO genotypes were food deprived for four hours and challenged with I.P. injection of insulin, and glucose concentration was determined in blood exactly at indicated time-points. Decrease and recovery of blood glucose was calculated as a % of basal level (the time-point before insulin injection). Basal levels of glucose were measured in triplicate for each mouse. For the GTT, the same groups of mice were fasted during fourteen hours and challenged with glucose injection I.P., analogously the blood glucose concentrations were measured.
Groups of mice, ten for the experimental drug treatment and 14 for the placebo treatment were subject for I.P. administration of a drug or placebo solutions daily during four days. Acarbose, a known drug which decreases blood glucose concentration was used as a control. The insulin tolerance test, ITT was performed on the mice as described previously, in Example 2.

[6] = Insulin tolerance test (ITT) in mice; assay type: in vivo

COc1cc2ncnc(Nc3ccc(Oc4ccccc4)cc3)c2cc1OC [Src I-1]
rank in the insulin-sensitizer screen [1]: top 35 out of 1689
P-Akt/P-Erk ratio ([2]; Western blot): increasing the P-Akt/P-Erk ratio
insulin-dependent phospho-Akt (P-Akt) signaling/activation [2]: stimulates insulin-dependent P-Akt signaling
Erk activation [3]: decreased Erk activation
phospho-Shc (Shc activation) [4]: inhibited phospho-Shc activation in dose-dependent manner
basal blood glucose [5]: significantly decreased basal blood glucose
insulin sensitivity in-vivo (ITT) ([6]; 2.5 mg/kg I.P. for 4 days): increased insulin sensitivity in-vivo

COC1=C(OC)C(=O)C(CCCCCCCCCCO)=C(C)C1=O [idebenone]
P-Akt/P-Erk ratio in the primary screen ([1]; ICWB, FL83B cells): increased P-Akt/P-Erk ratio
insulin-dependent phospho-Akt (P-Akt) signaling/activation [2]: increased insulin-dependent phospho-Akt activation in a dose-dependent manner
phospho-Shc (Shc activation) [4]: decreased phospho-Shc in a dose-dependent manner
insulin sensitivity in vivo (ITT) ([6]; PO, 20 and 50 mg/kg): increased insulin sensitivity in vivo

CN(C)C(=N)N=C(N)N [metformin, metformin hydrochloride]
rank in the insulin-sensitizer screen [1]: top 35 out of 1689
